Laboratory results published in patent US9550763B2, “Heterocyclic ring and carbocyclic derivative” (Shionogi & Co., Ltd., priority 2012, dated 2017).

biological target: human P2X3 receptor (Homo sapiens (Human), UniProt P56373); experiment: Evaluation of human P2X3 receptor inhibitory activity (Test Example 1-2, FLIPR 384, 384-well, 150 nM ATP); assay type: cell-based; conditions: C6BU-1 cell transfected with human P2X3 receptor gene; method of Test Example 1-2 (compounds I-301 to I-483); read-out: IC50 (human P2X3 receptor inhibitory activity)
Summary of the method: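 Human P2X3 stably expressed in C6BU-1 cells, Fluo-3-AM loaded, read on FLIPR at pH 7.5 HEPES buffer. Compound added 5 min before 150 nM ATP; peak/baseline fluorescence over 4 min gave inhibition (buffer instead of ATP = 100%), from which IC50 was derived.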

human P2X3 receptor, sequence (P56373 whole entry): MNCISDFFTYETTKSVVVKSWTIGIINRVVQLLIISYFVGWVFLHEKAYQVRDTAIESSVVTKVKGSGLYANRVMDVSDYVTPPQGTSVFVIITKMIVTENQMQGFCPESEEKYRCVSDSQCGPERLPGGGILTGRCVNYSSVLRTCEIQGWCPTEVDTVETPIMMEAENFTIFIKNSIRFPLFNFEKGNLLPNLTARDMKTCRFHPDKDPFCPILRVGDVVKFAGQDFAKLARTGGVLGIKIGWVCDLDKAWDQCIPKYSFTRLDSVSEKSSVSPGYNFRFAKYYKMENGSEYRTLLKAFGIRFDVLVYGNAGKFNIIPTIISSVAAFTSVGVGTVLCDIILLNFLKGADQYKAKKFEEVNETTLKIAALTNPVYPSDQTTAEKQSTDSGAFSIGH

| IC50 | SMILES |
| --- | --- |
| < 30000 nM | COC(=O)c1cccc(Oc2ccc(Nc3ccn(C(C)C)c(=O)c3Cc3ccc(Cl)cc3)cc2)n1 [Compound I-465, 3-(4-chloro-benzyl)-1-isopropyl-4-[4-(6-methoxycarbonyl-2-pyridyloxy)phenylamino]pyridin-2(1H)-one] |
| < 30000 nM | CC(C)(C)c1cc(Nc2ccc(Oc3cccc(C(N)=O)n3)cc2)n(Cc2ccc(Cl)cc2)n1 [Compound I-468, 3-t-butyl-1-(4-chlorobenzyl)-5-[4-(6-carbamoyl-2-pyridyloxy)phenylamino]pyrazole] |
| < 30000 nM | CC(C)n1ccc(Nc2ccc(Oc3cccc(C(N)=O)n3)cc2)c(Cc2ccc(Cl)cc2)c1=O [Compound I-467] |
| < 30000 nM | O=C(O)c1cn(Cc2ccc(Cl)cc2)c2cc(Nc3ccc(Oc4ccc(F)cn4)cc3)ccc2c1=O [Compound I-461] |

same assay, conditions: human P2X3 receptor in C6BU-1 cells; Test Example 1-2 (compounds I-301 to I-483); read-out: P2X3 IC50

| SMILES | IC50 |
| --- | --- |
| O=c1c(-c2nnco2)c[nH]/c(=N\c2ccc(Oc3ccon3)cc2)n1Cc1ccc(Cl)cc1 [Compound I-439] | 47 nM |
| COC(=O)c1nnc(-c2c[nH]/c(=N\c3ccc(Oc4ccon4)cc3)n(Cc3ccc(Cl)cc3)c2=O)o1 [Compound I-438] | 109 nM |
| C[C@@H](NC(=O)c1cn(Cc2ccc(Cl)cc2)c(Nc2ccc(Oc3cccc(F)n3)cc2)nc1=O)C(N)=O [Compound I-443] | 36 nM |
| CNC(=O)c1noc(-c2c[nH]/c(=N\c3ccc(Oc4ccon4)cc3)n(Cc3ccc(Cl)cc3)c2=O)n1 [Compound I-442] | 80 nM |
| Cc1cc(CNC(=O)c2cn(Cc3ccc(Cl)cc3)c(Nc3ccc(Oc4cccc(F)n4)cc3)nc2=O)no1 [Compound I-420] | 88 nM |
| CCOC(=O)c1cnc(Oc2ccc(/N=c3\[nH]cc(-c4nc(C)no4)c(=O)n3Cc3ccc(Cl)cc3)cc2)s1 [Compound I-311] | 31 nM |
| COC(=O)c1ccc(Oc2ccc(/N=c3\[nH]cc(-c4nc(C)no4)c(=O)n3Cc3ccc(Cl)cc3)cc2)nn1 [Compound I-312] | 7 nM |
| COC(=O)[C@H](C)[C@H](C)n1c(=O)cc(Nc2ccc(Oc3ccc(F)cn3)cc2)n(Cc2ccc(Cl)cc2)c1=O [Compound I-323] | 26 nM |
| NC(=O)c1noc(-c2c[nH]/c(=N\c3ccc(Oc4ccon4)cc3)n(Cc3ccc(Cl)cc3)c2=O)n1 [Compound I-441] | 69 nM |
| COC(=O)CCCn1c(=O)cc(Nc2ccc(Oc3ccc(F)cn3)c(C)n2)n(Cc2ccc(Cl)cc2)c1=O [Compound I-360] | 6 nM |
| CCOC(=O)c1cnc(Oc2ccc(/N=c3\[nH]cc(C(C)C)c(=O)n3Cc3ccc(Cl)cc3)cc2)s1 [Compound I-410] | 626 nM |
| Cc1nnc(-c2c[nH]/c(=N\c3ccc(Oc4cccc(C(N)=O)n4)cc3)n(Cc3ccc(Cl)cc3)c2=O)o1 [Compound I-329] | 20 nM |
| COC(=O)C(C)(C)Cn1c(=O)cc(Nc2ccc(Oc3ccc(F)cn3)c(C)n2)n(Cc2ccc(Cl)cc2)c1=O [Compound I-364] | 4 nM |
| N#Cc1cccc(Oc2ccc(/N=c3\[nH]cc(N4CCCC4=O)c(=O)n3Cc3ccc(Cl)cc3)cc2)n1 [Compound I-332] | 179 nM |
| N#Cc1cccc(Oc2ccc(/N=c3\[nH]cc(-c4ccccc4)c(=O)n3Cc3ccc(Cl)cc3)cc2)n1 [Compound I-408, 1-(4-chlorobenzyl)-2-[4-(6-cyano-2-pyridyloxy)phenylamino]-5-phenylpyrimidin-6(1H)-one] | 407 nM |
| CCC(=O)Nc1c[nH]/c(=N\c2ccc(Oc3ccc(C#N)nn3)cc2)n(Cc2ccc(Cl)cc2)c1=O [Compound I-306] | 19 nM |
| O=c1c(Nc2ccon2)c[nH]/c(=N\c2ccc(Oc3ccon3)cc2)n1Cc1ccc(Cl)cc1 [Compound I-307] | 21 nM |
| CCC(=O)Nc1c[nH]/c(=N\c2ccc(Oc3ccc(C(F)(F)F)nn3)cc2)n(Cc2ccc(Cl)cc2)c1=O [Compound I-411] | 10 nM |
| Cc1nc(Nc2cc(=O)n(C(C)C)c(=O)n2Cc2ccc(Cl)cc2)ccc1Oc1cccc(C#N)c1 [Compound I-340] | 8 nM |
| CCn1c(=O)[nH]c(Nc2ccc(Oc3cccc(C(=O)O)n3)cc2)c(Cc2ccc(Cl)cc2)c1=O [Compound I-457] | 9 nM |
| O=C1CCCN1c1c[nH]/c(=N\c2ccc(Oc3cccc(F)n3)cc2)n(Cc2ccc(Cl)cc2)c1=O [Compound I-333] | 149 nM |

| SMILES | IC50 |
| --- | --- |
| O=C(N[C@@H]1CCOC1)c1cn(Cc2ccc(Cl)cc2)c(Nc2ccc(Oc3cccc(F)n3)cc2)nc1=O [Compound I-398] | 22 nM |
| C=CCNC(=O)c1c[nH]/c(=N\c2ccc(Oc3ccon3)cc2)n(Cc2ccc(Cl)cc2)c1=O [Compound I-450] | 21 nM |
| O=C(NCC1CCOC1)c1cn(Cc2ccc(Cl)cc2)c(Nc2ccc(Oc3cccc(F)n3)cc2)nc1=O (stereo not shown) [Compound I-396] | 25 nM |
| CC(C)c1c[nH]/c(=N\c2ccc(Oc3cccc(C#N)n3)cc2)n(Cc2ccc(Cl)cc2)c1=O [Compound I-321] | 150 nM |
| Cc1nc(Nc2cc(=O)n(C(C)C)c(=O)n2Cc2ccc(Cl)cc2)ccc1Oc1cccc(C(=O)O)n1 [Compound I-341] | 10 nM |
| COCCn1c(=O)cc(Nc2ccc(Oc3cccc(C#N)n3)c(C)n2)n(Cc2ccc(Cl)cc2)c1=O [Compound I-322] | 5 nM |
| O=C(NC1CCNC1=O)c1cn(Cc2ccc(Cl)cc2)c(Nc2ccc(Oc3cccc(F)n3)cc2)nc1=O (stereo not shown) [Compound I-389] | 10 nM |
| CC(c1ccc(F)cc1)n1cc(C(=O)NC2CCOCC2)c(=O)nc1Nc1ccc(Oc2cccc(F)n2)cc1 (stereo not shown) [Compound I-352] | 369 nM |
| O=C(O)c1cccc(Oc2ccc(/N=c3\[nH]cc(C4CCOCC4)c(=O)n3Cc3ccc(Cl)cc3)cc2)n1 [Compound I-478] | 5 nM |
| CC1(NC(=O)c2cn(Cc3ccc(Cl)cc3)c(Nc3ccc(Oc4cccc(F)n4)cc3)nc2=O)CCOCC1 [Compound I-385] | 16 nM |
| O=C(NC[C@H]1CCCO1)c1cn(Cc2ccc(Cl)cc2)c(Nc2ccc(Oc3cccc(F)n3)cc2)nc1=O [Compound I-387] | 14 nM |
| Cc1noc(-c2c[nH]/c(=N\c3ccc(Oc4ccon4)cc3)n(Cc3ccc(Cl)cc3)c2=O)n1 [Compound I-345] | 38 nM |
| O=C(NCc1ccccc1)c1c[nH]/c(=N\c2ccc(Oc3ccon3)cc2)n(Cc2ccc(Cl)cc2)c1=O [Compound I-451] | 104 nM |
| O=c1c(-c2nnc(CO)o2)c[nH]/c(=N\c2ccc(Oc3ccon3)cc2)n1Cc1ccc(Cl)cc1 [Compound I-399] | 36 nM |
| Cc1c[nH]c2ccc(Nc3ncc(NC(=O)C4CCOCC4)c(=O)n3Cc3ccc(Cl)cc3)cc12 [Compound I-414] | 392 nM |
| O=C(Nc1c[nH]/c(=N\c2ccc(Oc3ccc(C(F)(F)F)nn3)cc2)n(Cc2ccc(Cl)cc2)c1=O)C1CCOCC1 [Compound I-435] | 3 nM |
| O=C(NCC(F)(F)F)c1c[nH]/c(=N\c2ccc(Oc3ccon3)cc2)n(Cc2ccc(Cl)cc2)c1=O [Compound I-452] | 98 nM |
| CCn1c(=O)[nH]c(Nc2ccc(Oc3cccc(C(N)=O)n3)cc2)c(Cc2ccc(Cl)cc2)c1=O [Compound I-458] | 15 nM |
| CCC(=O)Nc1c[nH]/c(=N\c2ccc(Oc3cccc(CCC(=O)OC)c3)cc2)n(Cc2ccc(Cl)cc2)c1=O [Compound I-330] | 366 nM |
| COC(=O)[C@@H](C)Cn1c(=O)cc(Nc2ccc(Oc3ccc(F)cn3)c(C)n2)n(Cc2ccc(Cl)cc2)c1=O [Compound I-362] | 7 nM |
| COC(=O)c1cccc(Oc2ccc(/N=c3\[nH]cc(C4CCOCC4)c(=O)n3Cc3ccc(Cl)cc3)cc2)n1 [Compound I-476] | 66 nM |
